In patent publication US20220153732A1, “PROTEIN SECRETION INHIBITORS” (KEZAR LIFE SCIENCES, priority 2019, published 2022):
Like-named read-outs stand apart in the source and are kept apart here.

Legend:
Type in all cases: cell-based
[1] = tested on: IL-2-FL/Gaussia Luciferase; test: Dox Induced IL2-FL-Gluc Assay
Procedure: (§1) Transfected cells were selected for resistance to the selectable markers Hygromycin and Blasticidin to create a stable cell line that contained the IL-2-FL/Gaussia Luciferase cDNA insert whose expression was regulated under the T-RExTM system. The day before assay, cells were trypsinized and plated in 384-well tissue culture plates. The next day, compound dilutions in DMSO/media containing doxycycline were added to the wells and incubated at 37° C., 5% CO2. […] For chemical structures that include one or more stereoisomers, but are illustrated without indicating stereochemistry, the assay data refers to a mixture of stereoisomers.

[2] = tested on: TNFα-FL/Gaussia Luciferase; test: Dox Induced TNFα-FL-Gluc Assay
Procedure: as §1, with “TNFα-FL/Gaussia” for “IL-2-FL/Gaussia”

[3] = tested on: HER3-ss+4aa/Gaussia Luciferase; test: Dox-Induced Her3-ss-Gluc Assay
Procedure: (§2) Transfected cells were selected for resistance to the selectable markers Hygromycin and Blasticidin to create a stable cell line that contained the HER3-ss+4aa/Gaussia Luciferase cDNA insert whose expression was regulated under the T-REx™ system. The day before assay, cells were trypsinized and plated in 384-well tissue culture plates. The next day, compound dilutions in DMSO/media containing doxycycline were added to the wells and incubated at 37° C., 5% CO2.
(§3) For chemical structures that include one or more stereoisomers, but are illustrated without indicating stereochemistry, the assay data refers to a mixture of stereoisomers.

[4] = tested on: human multiple myeloma cell line U266B1; test: U266 Cell Viability Assay; conditions: U-266, 48 hr, U266B1 cells, Celltiter-Glo, read-out: 48 hr U266 Viability Celltiter-Glo: Mean EC50
Procedure: Cells were plated in 384-well tissue culture plates and treated with compound dilutions in DMSO/media. Plates were incubated at 37° C., 5% CO2 for 48 hours. After 48 hours, Celltiter-Glo® (Promega) was added to each well and luciferase signal was quantified using Tecan Infinite M1000 Pro for cell viability determination.
as §3

[5] = tested on: human multiple myeloma cell line NCI-H929; test: H929 Cell Viability Assay; conditions: 48 hr, NCI-H929 cells, Celltiter-Glo, read-out: 48 hr H929 Viability Celltiter-Glo: Mean EC50
Procedure: Plates were incubated at 37° C., 5% CO2 for 48 hours. After 48 hours, Celltiter-Glo® (Promega) was added to each well and luciferase signal was quantified using Tecan Infinite M1000 Pro for cell viability determination.
as §3

[6] = tested on: PD1-ss+10aa/Gaussia Luciferase; test: Dox-Induced PD1-ss-Gluc Assay
Procedure: as §2, with “PD1-ss+10aa/Gaussia” for “HER3-ss+4aa/Gaussia”
as §3

[7] = 24 hr, doxycycline-induced, 293FRT/TO cells; read-out: 24 hr Dox Inducible IL2FLGIuc 293FRT/TO: Mean IC50
[8] = 24 hr, doxycycline-induced, 293FRT/TO cells; read-out: 24 hr Dox Inducible TNFaFLGluc 293FRT/TO: Mean IC50
[9] = 24 hr, doxycycline-induced, 293FRT/TO cells; read-out: 24 hr Dox Inducible Her3(ss + 4)Gluc 293FRT/TO: Mean IC50
[10] = 24 hr, doxycycline-induced, 293FRT/TO cells; read-out: 24 hr Dox Inducible PD1ssGluc 293FRT/TO: Mean IC50
[11] = 24 hr doxycycline induction, 293FRT/TO cells, Gaussia luciferase signal; read-out: 24 hr Dox Inducible IL2FLGIuc 293FRT/TO: Mean IC50
[12] = 24 hr doxycycline induction, 293FRT/TO cells, Gaussia luciferase signal; read-out: 24 hr Dox Inducible TNFaFLGluc 293FRT/TO: Mean IC50
[13] = 24 hr doxycycline induction, 293FRT/TO cells, Gaussia luciferase signal; read-out: 24 hr Dox Inducible Her3(ss + 4)Gluc 293FRT/TO: Mean IC50
[14] = 24 hr doxycycline induction, 293FRT/TO cells, Gaussia luciferase signal; read-out: 24 hr Dox Inducible PD1ssGluc 293FRT/TO: Mean IC50

Row | Compound | IC50 [1, 7] [nM] | IC50 [2, 8] [nM] | IC50 [3, 9] [nM] | EC50 [4] [nM] | EC50 [5] [nM] | IC50 [6, 10] [nM] | IC50 [1, 11] [nM] | IC50 [2, 12] [nM] | IC50 [3, 13] [nM] | IC50 [6, 14] [nM] | IC50 ([1]; read-out: 24 hr Dox Inducible IL2FLGIuc 293FRT/TO: Mean IC50; 24 hr, doxycycline-induced, 293FRT/TO cells) [nM] | IC50 ([2]; read-out: 24 hr Dox Inducible TNFaFLGluc 293FRT/TO: Mean IC50; 24 hr, doxycycline-induced, 293FRT/TO cells) [nM] | IC50 ([3]; read-out: 24 hr Dox Inducible Her3(ss + 4)Gluc 293FRT/TO: Mean IC50; 24 hr, doxycycline-induced, 293FRT/TO cells) [nM] | IC50 ([6]; read-out: 24 hr Dox Inducible PD1ssGluc 293FRT/TO: Mean IC50; 24 hr, doxycycline-induced, 293FRT/TO cells) [nM]
1 | O=C(Nc1nc(/C=C/c2ccncc2)cs1)c1cccn1Cc1ccncc1 [Compound A166, N-(4-(2-(pyridin-4-yl)vinyl)thiazol-2-yl)-1-(pyridin-4-ylmethyl)-1H-pyrrole-2-carboxamide] | – | – | – | > 25000 | > 25000 | – | > 25000 | > 25000 | > 25000 | 13500 | – | – | – | –
2 | O=C(Nc1nc2ccccc2s1)c1cccn1Cc1ccncc1 [Compound A50, N-(benzo[d]thiazol-2-yl)-1-(pyridin-4-ylmethyl)-1H-pyrrole-2-carboxamide] | – | – | – | > 25000 | > 25000 | – | 1450 | > 25000 | 2930 | 1290 | – | – | – | –
3 | O=C(Nc1nc(C(F)(F)F)cs1)c1cccn1Cc1ccncc1 [Compound A19, 1-(pyridin-4-ylmethyl)-N-(4-(trifluoromethyl)thiazol-2-yl)-1H-pyrrole-2-carboxamide] | – | – | – | > 25000 | > 25000 | – | 529 | 8540 | 492 | 246 | – | – | – | –
4 | NC(=O)c1ccc(/C=C/c2csc(NC(=O)c3cccn3Cc3ccncc3)n2)cc1 [Compound A231] | – | – | – | > 25000 | 16800 | – | 7070 | 11200 | > 25000 | 506 | – | – | – | –
5 | CC(C)(C)[Si](O[C@H]1C[C@H](c2csc(NC(=O)c3cccn3Cc3ccncc3)n2)N(c2ccccc2)C1)(c1ccccc1)c1ccccc1 [Compound A323] | – | – | – | > 25000 | 118 | – | – | – | – | – | 10 | 11 | 13 | 7
6 | O=C(Nc1nc([C@H]2C[C@H]2c2ccccc2)cs1)c1cccn1Cc1ccncc1 [Compound A200] | – | – | – | > 25000 | 15700 | – | 251 | 1610 | 332 | 140 | – | – | – | –
7 | COc1ccccc1C#Cc1csc(NC(=O)c2cccn2Cc2ccncc2)n1 [Compound A141] | – | – | – | 13100 | 7720 | – | 1580 | 1820 | 651 | 277 | – | – | – | –
8 | O=C(Nc1nc(/C=C/c2ccc([N+](=O)[O-])cc2)cs1)c1cccn1Cc1ccncc1 [Compound A227] | – | – | – | > 21400 | 8950 | – | 625 | 1900 | 379 | 53 | – | – | – | –
9 | COc1ccccc1/C=C/c1csc(NC(=O)c2cccn2Cc2ccncc2)n1 [Compound A158, N-(4-(2-methoxystyryl)thiazol-2-yl)-1-(pyridin-4-ylmethyl)-1H-pyrrole-2-carboxamide] | – | – | – | > 25000 | 15700 | – | 1470 | 2420 | 993 | 293 | – | – | – | –
10 | O=C(Nc1nc(/C=C/c2ccoc2)cs1)c1cccn1CCCc1ccncc1 [Compound A232, N-(4-(2-(furan-3-yl)vinyl)thiazol-2-yl)-1-(3-(pyridin-4-yl)propyl)-1H-pyrrole-2-carboxamide] | – | – | – | 19700 | 13400 | – | 8600 | 21500 | 14900 | 2990 | – | – | – | –
11 | O=C(Nc1nc(CCO)cs1)c1cccn1Cc1ccncc1 [Compound A120] | – | – | – | > 25000 | > 25000 | – | > 25000 | > 25000 | > 25000 | > 25000 | – | – | – | –

Second part, led by results:

Row | IC50 [1, 7] [nM] | IC50 [2, 8] [nM] | IC50 [3, 9] [nM] | EC50 [4] [nM] | EC50 [5] [nM] | IC50 [6, 10] [nM] | IC50 [1, 11] [nM] | IC50 [2, 12] [nM] | IC50 [3, 13] [nM] | IC50 [6, 14] [nM] | Compound | IC50 ([1]; read-out: 24 hr Dox Inducible IL2FLGIuc 293FRT/TO: Mean IC50; 24 hr, doxycycline-induced, 293FRT/TO cells) [nM] | IC50 ([2]; read-out: 24 hr Dox Inducible TNFaFLGluc 293FRT/TO: Mean IC50; 24 hr, doxycycline-induced, 293FRT/TO cells) [nM] | IC50 ([3]; read-out: 24 hr Dox Inducible Her3(ss + 4)Gluc 293FRT/TO: Mean IC50; 24 hr, doxycycline-induced, 293FRT/TO cells) [nM] | IC50 ([6]; read-out: 24 hr Dox Inducible PD1ssGluc 293FRT/TO: Mean IC50; 24 hr, doxycycline-induced, 293FRT/TO cells) [nM]
12 | 1420 | 8030 | 827 | > 25000 | > 25000 | 253 | – | – | – | – | COc1ccc(N2CC(c3csc(NC(=O)c4cccn4Cc4ccncc4)n3)C2)nc1 [Compound A315] | – | – | – | –
13 | 1840 | 16000 | 2720 | > 25000 | > 25000 | 1310 | – | – | – | – | O=C(Nc1nc([C@H]2CCC(=O)N2c2ccccc2)cs1)c1cccn1Cc1ccncc1 [Compound A319] | – | – | – | –
14 | – | – | – | > 25000 | 23900 | – | 1540 | 3030 | 1260 | 440 | O=C(Nc1nc(C2Cc3ccccc3O2)cs1)c1cccn1Cc1ccncc1 (stereo not drawn) [Compound A288] | – | – | – | –
15 | – | – | – | > 25000 | 11000 | – | 1160 | 1950 | 817 | 244 | O=C(Nc1nc(C2Cc3ccccc3C2)cs1)c1cccn1Cc1ccncc1 [Compound A281] | – | – | – | –
16 | 8420 | > 25000 | 12100 | > 25000 | > 25000 | 1970 | – | – | – | – | C=Cc1csc(NC(=O)c2cccn2Cc2ccncc2)n1 [Compound B2] | – | – | – | –
17 | 657 | 2180 | 414 | > 25000 | 12400 | 196 | – | – | – | – | O=C(Nc1nc([C@H]2CC[C@@H](c3ccccc3)C2)cs1)c1cccn1Cc1ccncc1 (stereo in doubt) [Compound A305, N-(4-((1S,3R)-3-phenylcyclopentyl)thiazol-2-yl)-1-(pyridin-4-ylmethyl)-1H-pyrrole-2-carboxamide] | – | – | – | –
18 | – | – | – | > 25000 | 23900 | – | 3740 | 22300 | 2550 | 363 | O=C(Nc1nc(/C=C/c2cnc3c(c2)OCO3)cs1)c1cccn1Cc1ccncc1 [Compound A274] | – | – | – | –
19 | > 25000 | > 25000 | > 25000 | > 25000 | > 25000 | > 25000 | – | – | – | – | CCc1nc(NC(=O)[C@@H]2CCCN2Cc2ccncc2)sc1C [Compound B26, (S)-N-(4-ethyl-5-methylthiazol-2-yl)-1-(pyridin-4-ylmethyl)pyrrolidine-2-carboxamide] | – | – | – | –
20 | – | – | – | > 25000 | 8370 | – | 324 | 1320 | 179 | 27 | COc1ccc(/C=C/c2csc(NC(=O)c3cccn3Cc3ccncc3)n2)c(F)c1 [Compound A241, N-(4-(2-fluoro-4-methoxystyryl)thiazol-2-yl)-1-(pyridin-4-ylmethyl)-1H-pyrrole-2-carboxamide] | – | – | – | –
21 | 450 | 2420 | 589 | > 25000 | 10500 | 328 | – | – | – | – | O=C(Nc1nc([C@H]2CCC[C@@H]2c2ccccc2)cs1)c1cccn1Cc1ccncc1 [Compound A300, N-(4-((1S,2S)-2-phenylcyclopentyl)thiazol-2-yl)-1-(pyridin-4-ylmethyl)-1H-pyrrole-2-carboxamide] | – | – | – | –
